Data on 9 substances can be found in PMC5430633, “Phosphorylation of the mitochondrial autophagy receptor Nix enhances its interaction with LC3 proteins” (Scientific Reports, 2017).

The subject of one experiment is GFP-LC3B K51A. Kind of experiment: Co-immunoprecipitation with GFP-LC3B K51A. The format is binding, human. As to conditions: α-GFP IP, Western blot. As for the experimental part:
(§1) Cells were scraped, centrifuged at 500 g for 5 min, and lysed in 150 µL CHAPS lysis buffer (2% CHAPS, 1% Triton X-100, 137 mM NaCl, 2 mM EDTA, 10% glycerol, and 20 mM Tris-HCl, pH 8.0) containing protease and phosphatase inhibitors. 5 µL of total lysate was kept as Input sample and 145 µL of cell lysate was incubated with 12.5 µL α-GFP (1:40, Roche)-coupled Dynabeads Protein G (purchased from Invitrogen) for 2 hrs at 4 °C. This step was followed by three washing steps using 0.02% Tween-20/PBS and immunoprecipitated proteins were eluted from Dynabeads by adding 4X LDS buffer (purchased from Invitrogen) and 10X sample reducing agent (purchased from Invitrogen) to the beads. Heating at 70 °C for 10 min will denaturized the proteins to analyze them by Western blotting.
On the technique in general: Immunoblotting shows a protein as a band on a membrane.

Another experiment concerns EGFP-LC3B K49A. In words: Co-immunoprecipitation with EGFP-LC3B K49A. Type of experiment: binding, human. Particulars: Figs S3 and S7; vs wild type LC3B. As for the experimental part: as §1
For another experiment, the system named is GFP-LC3B wild type. In words: Co-immunoprecipitation with GFP-LC3B wild type. Type of experiment: binding, human. As to conditions: α-GFP IP, Western blot. Here is the method:
as §1

The test system of experiment [1] is GST-LC3B. Kind of experiment: GST pull-down with GST-LC3B wild type. The format is binding, human. Particulars: for interaction with GST-LC3B wild type: Flag-Nix in cell lysate, Fig. 3a; for interaction with GST-LC3B: Fig. 1b, triplicates. Here is the method: (§2) GST fusions of various proteins (pGEX plasmids) were expressed in BL21 E. coli. Fusion protein expression was induced by adding 0.5 mM IPTG for 4 hrs. Bacteria were lysed in 20 mM Tris-HCl, pH 7.5, 10 mM EDTA, pH 8.0, 5 mM EGTA, 150 mM NaCl supplemented with 2 mg/ml lysozyme. GST fusion proteins were subsequently bound to pre-washed Glutathione-Sepharose 4B beads (GE Healthcare). After several washes, fusion protein-bound beads were used directly in binding assays.
(§3) HEK293 or HeLa cells were transfected with expression constructs encoding the protein of interest using JetPRIME (Polyplus Transfection). 24 hrs post-transfection cells were lysed in 50 mM HEPES, pH 7.5, 150 mM NaCl, 1 mM EDTA pH 8.0, 1 mM EGTA, 10% glycerol, 1% Triton X-100, 25 mM NaF, […] and lysates were incubated for 4 hrs with immobilized GST-fusion proteins at 4 °C. Following 5 washes, beads with co-precipitated proteins were resuspended in 2x SDS-PAGE loading buffer, boiled and loaded onto 10% or 12% SDS-PAGE gels for analysis. All GST pull-down experiments were performed in triplicates.

The next experiment has as its system GST-LC3B K49A. Kind of experiment: GST pull-down with GST-LC3B K49A. Type of experiment: binding, human. Particulars: Fig. 3a, vs wild type LC3B. Here is the method: as §2, §3
The test system of experiment [2] is HeLa cells expressing GFP-LC3B wild type. Kind of experiment: Colocalization / sequestration of mitochondria with GFP-LC3B wild type, fluorescence microscopy. The format is cell-based. Particulars: Fig. 4a. As for the experimental part: (§4) HeLa cells were seeded, grown on coverslips or 8-well microscopy slides (ibidi) and transfected with either wild type or mutant Nix or Bnip3 together with wild type or mutant LC3B constructs using JetPRIME transfection reagent according to manufacturer’s instructions. 24 hrs post transfection cells were fixed in 2% or 4% paraformaldehyde and permeabilized with 0,1% Triton X-100 solution. Cells were blocked in 5% BSA/PBS/0.1% Triton X-100 for 1 hr at room temperature or 4 °C overnight. Primary and secondary antibodies were diluted in blocking solution and washed in 0,1% Triton X-100/PBS. Coverslips were mounted in Prolong mounting media (Invitrogen). Cells in 8-well microscopy slides were placed in PBS following staining. Cells were imaged using a Zeiss AxioVision or DeltaVision RT microscope system (Applied Precision). Quantification of Nix-LC3B colocalization was performed as follows: for each Nix construct, LC3B positive dots (signals) were numbered in 100 cells. Only clear and well-defined LC3B signals are taken into consideration, while weak and oversized signals were excluded from the analysis.
HeLa cells were plated in 8-well microscopy µ-slides (ibidi) were transfected GFP-LC3 and RFP-Nix WT, S34,35A or S34,35E. From Z-stacks, single cells were cropped for analysis by ImageJ. Binary masks for each slice within ≥10 representative Z-stacks per condition of (i) Nix-labeled mitochondria and (ii) GFP-LC3 were generated by image segmentation. Slice-by-slice co-localization of mitochondrial and AV masks were calculated using the Boolean AND function. All slices for each binary stack were summed, and the ratio of area calculated from mitochondrialy-localized AV over total mitochondria content is reported as a cellular fraction.

The subject of experiment [3] is HEK293 cells (mitochondrial loss). In words: Mitochondrial removal by flow cytometry. Type of experiment: cell-based. As to conditions: HEK293, GFP-Nix, 10 μM CCCP 24 hours; vs wild type. Here is the method:
HEK293 cells were transfected with GFP expression constructs encoding the protein of interest using JetPRIME (Polyplus Transfection). 24 hrs post-transfection cells were treated with 10 µM CCCP for 24 hrs. After treatment, cells were washed with PBS, trypsinized with trypsin for 5 min and resuspended by gentle pipetting. Trypsin-mediated digestion was arrested by the addition of DMEM supplemented with 10% FBS and cells were centrifuged at 500 g for 5 min. To remove cell clumps, cells were resuspended in PBS and filtered through the 70 µm Cell Strainer (BD Falcon). Approximately 10^6 cells were acquired for further flow cytometry analysis. Before fixation, cells were washed twice with FACS buffer (2% FBS, 0,02% NaN3 in PBS) and each time centrifuged at 500 g for 5 min. Cells were fixed with freshly prepared 4% paraformaldehyde for 10 min at room temperature, washed twice with FACS buffer and finally resuspended in […] prior to analysis. […] The acquired data were gated for singlets by generating FSC-A vs FSC-H plot after which dead cells were excluded and the mean fluorescence in FL1 channel was collected. The mean fluorescence of the CCCP and CCCP/Baf treated samples was compared with the untreated control and the results were expressed as a percentage of the retained mitochondria of at least two independent experiments. Results were analyzed using FlowLogic software.
For orientation: A flow cytometer gives signals particle by particle.

The test system of experiment [4] is HeLa cells (recruitment of LC3B to mitochondria). Kind of experiment: LC3B positive vesicles per 100 cells, immunofluorescence microscopy. The format is cell-based. As to conditions: 10 µM CCCP for 2 hours, vs wild type and S34,35A, three independent experiments, Fig. 3b. Here is the method: as §4
Experiment [5] deals with HeLa cells expressing GFP-LC3B K51A. In words: Colocalization with GFP-LC3B K51A, fluorescence microscopy. The format is cell-based. Particulars: Fig. 4d,e. As for the experimental part:
as §4, with “Only clear and well-defined LC3B signals are taken into consideration, while weak and oversized signals were excluded from the analysis.” left out
HeLa cells were plated in 8-well microscopy µ-slides (ibidi) were transfected GFP-LC3 and RFP-Nix WT, S34,35A or S34,35E. […] Slice-by-slice co-localization of mitochondrial and AV masks were calculated using the Boolean AND function. All slices for each binary stack were summed, and the ratio of area calculated from mitochondrialy-localized AV over total mitochondria content is reported as a cellular fraction.

The test system of experiment [6] is cells expressing LC3B K49A. Kind of experiment: Colocalization with LC3B K49A, fluorescence microscopy. Type of experiment: cell-based. As to conditions: vs wild type LC3B. Here is the method: as §4
The next experiment deals with GST-LC3A. Kind of experiment: GST pull-down with GST-LC3A. Particulars: Fig. 1b, triplicates. Type of experiment: binding, human. As for the experimental part: as §2, §3
A further experiment concerns EGFP-LC3B R11A. In words: Co-immunoprecipitation with EGFP-LC3B R11A. Type of experiment: binding, human. Particulars: α-GFP IP, 24 hrs post transfection, Fig. S5a. As for the experimental part:
as §1

In another experiment the test system is EGFP-LC3B R10A. In words: Co-immunoprecipitation with EGFP-LC3B R10A. Type of experiment: binding, human. Particulars: α-GFP IP, 24 hrs post transfection, Fig. S5a. Here is the method: as §1
The subject of experiment [7] is GST-LC3B. Particulars: ref [17]; cited from earlier work. Here is the method: Recently, it was determined that phosphorylation of serine residues juxtaposed to the LIR motif is responsible for the activation of receptor functions for Optn and Bnip3[5],[14]. […] Therefore, we mutated Ser34 and Ser35 in Nix to alanine, glutamic acid or aspartic acid re ...
Another experiment concerns the target T1, LC3B wild type (Homo sapiens, UniProt Q9GZQ8).
T1 construct: Ub3 (ubiquitin fusion) (N); made in house
Kind of experiment: Isothermal titration calorimetry (ITC), LC3B wild type. The format is binding. Background: ITC needs no label: the signal is the heat of the interaction.

A further experiment concerns the target T2, LC3B K49A (Homo sapiens, UniProt Q9GZQ8, K49A).
T2 construct: Ub3 (ubiquitin fusion) (N); made in house
In words: ITC, LC3B K49A mutant. Type of experiment: binding.

For the substance “Bnip3 wild type: mitophagy receptor Bnip3, homolog of Nix [reference compound]”, the “co-immunoprecipitation with GFP-LC3B K51A” value in the experiment on GFP-LC3B K51A is given as “does not”. Besides, the “affinity to LC3B K49A (in words)” value with EGFP-LC3B K49A is “increased affinity”.

Take “Bnip3S17,24E: Bnip3 S17,24E mutant [reference compound]”: the “co-immunoprecipitation with GFP-LC3B wild type” value in the experiment on GFP-LC3B wild type is “strongly bound”. Also, the “co-immunoprecipitation with GFP-LC3B K51A” value in the experiment with GFP-LC3B K51A is reported as “absent”.

Turning to “Nix S34,35A: Nix with serine-to-alanine mutations to disable phosphorylation”, the “interaction with GST-LC3B wild type” value with GST-LC3B [1] is given as “did not interact”. Also, in the experiment on GST-LC3B K49A, the “interaction with GST-LC3B K49A” value was “strongly increased binding”. The “targeting of mitochondria to LC3B autophagosomes / colocalization with GFP-LC3B” value in experiment [2] was “lack of such a recruitment”; in [2] (listed as RFP-Nix S34,35A), “does not colocalize”. For the same substance, the “co-immunoprecipitation with GFP-LC3B wild type” value with GFP-LC3B wild type was “no interaction”. In experiment [3], the “mitochondrial loss (fraction of removed mitochondria), in words” value is “slightly reduced compared to wild type”.

As to “Nix S34,35D: phosphomimetic Nix double mutant”, the “recruitment of LC3B-positive vesicles” value in experiment [4] was “increased recruitment of LC3B-positive vesicles compared to wild type and S34,35A”.

As to “Nix S34,35E: phosphomimetic Nix double mutant”, the “interaction with GST-LC3B wild type” value with GST-LC3B [1] is recorded as “robustly bound”. In addition, the “recruitment of LC3B-positive vesicles” value in [4] is “increased recruitment of LC3B-positive vesicles compared to wild type and S34,35A”. Besides, the “targeting of mitochondria to LC3B autophagosomes / colocalization with GFP-LC3B” value in experiment [2] is “enhanced targeting of mitochondria to LC3B autophagosomes relative to wild type Nix”; in experiment [2] (listed as S34,35E), “enhanced colocalization”. Further, the “colocalization with GFP-LC3B K51A” value in experiment [5] was “loss of cellular colocalization”. In addition, the “colocalization with LC3B K49A” value in experiment [6] is reported as “increased”. Also, the “co-immunoprecipitation with GFP-LC3B wild type” value in the experiment on GFP-LC3B wild type was “strong interaction”. Moreover, the “co-immunoprecipitation with GFP-LC3B K51A” value with GFP-LC3B K51A is listed as “unable to immunoprecipitate”. The “mitochondrial loss (fraction of removed mitochondria), in words” value in [3] was “more rapid”.

As for “Nix S34E: single phosphomimetic Nix mutant”, the “interaction with GST-LC3A” value in the experiment on GST-LC3A is on record as “stronger than wild type Nix but weaker than the double serine phosphomimetic S34,35D Nix mutant”. The “interaction with GST-LC3B” value with GST-LC3B [1] is “stronger than wild type Nix but weaker than the double serine phosphomimetic S34,35D Nix mutant”.

For “Nix S35E: single phosphomimetic Nix mutant”, in the experiment on GST-LC3A, the “interaction with GST-LC3A” value was “stronger than wild type Nix but weaker than the double serine phosphomimetic S34,35D Nix mutant”. Moreover, the “interaction with GST-LC3B” value in the experiment with GST-LC3B [1] is “stronger than wild type Nix but weaker than the double serine phosphomimetic S34,35D Nix mutant”.

On to “Nix wild type: mitophagy receptor Nix, wild type, expressed in cells”, for which, in the experiment with GST-LC3B [1], the “interaction with GST-LC3B” value is “considerably weaker than with LC3A”. Besides, the “interaction with GST-LC3B K49A” value in the experiment with GST-LC3B K49A (listed as Nix) was “increased affinity”; in the experiment with GST-LC3B K49A (listed as wild type Nix), “strongly increased binding”. Moreover, the “targeting of mitochondria to LC3B autophagosomes / colocalization with GFP-LC3B” value in [2] is recorded as “shows colocalization”. The “colocalization with GFP-LC3B K51A” value in experiment [5] is on record as “does not colocalize”. In addition, in the experiment with GFP-LC3B wild type, the “co-immunoprecipitation with GFP-LC3B wild type” value was “no interaction”. Moreover, the “co-immunoprecipitation with GFP-LC3B K51A” value with GFP-LC3B K51A is on record as “fails to coimmunoprecipitate”. In the experiment with EGFP-LC3B R11A, the “co-immunoprecipitation with LC3B R11A” value is recorded as “do not coimmunoprecipitate”. Moreover, in the experiment with EGFP-LC3B R10A, the “co-immunoprecipitation with LC3B R10A” value is “do not coimmunoprecipitate”. The “interaction rank of LC3B among Nix partners” value in the experiment on GST-LC3B [7] is “weakest”.

With “SQQGGWGTVFSLESEE [arbitrary LIR-similar peptide, residues 196–210 of the human protein BCL2L13 - analog of the yeast Atg32 protein]”, the “affinity to wild type LC3B (in words)” value at LC3B wild type was “weak”. Besides, the “affinity to LC3B K49A (in words)” value on LC3B K49A is “weak”.
